The record followed here is patent US6610289B2, “Mutated herpes simplex virus type 1 thymidine kinases and uses thereof” (The Board of Trustees of the University of Arkansas, priority 1998, dated 2003).

For test [1], the system named is NIH3T3 cells. Description: Metabolic labeling with [^3H]GCV, NIH3T3 cell clones. In kind it is cell-based, murine. The settings on record: 3T3. How it is done:
(§1) For metabolic labeling, cells (1-2×10^6) were labeled in triplicate with 2 μCi [^3H]GCV ([…]) for 18 hours, then nucleotides were extracted from pelleted cells in 0.2 ml 70% methanol at 4° C. for 15 minutes as previously described (21, 24). An aliquot of each methanol soluble supernatant was analyzed for radioactivity by scintillation counting. The methanol insoluble pellets, representative of a crude DNA fraction, were resuspended in 0.15 ml water and also counted for radioactivity. For deoxpyrimidines, cells were grown to confluency in 60 cm^2 plates, and either 2 μCi [^3H]thymidine (2 μM final) or 2 μCi [^3H]dC (10 μM final) were added for 1 or 2 hours respectively prior to extraction in 70% methanol. Methanol-soluble extracts were concentrated by evaporation under nitrogen, and separated on PEI-cellulose thin layer chromatography plates developed in 0.8 M LiCl for GCV or 0.35 M LiCl for thymidine/dC as previously described (21).
(§2) NIH3T3 fibroblasts and the human tumor cell line HCT-116 were transfected with wild-type HSV-1TK or with one of three site specific mutants of amino acid Gln-125. From a panel of multiple HSV-1TK expressing clones, a subset of clones from each cell line expressing wild-type HSV-1 TK, the Asn-125 HSV-1 TK mutant (Asn-125TK) and the Glu-125 HSV-1 TK mutant (Glu-125TK) were selected for comparatively equivalent levels of HSV-1 TK protein expression based on Western blot determinations. In this study, these two sets of HSV-1 TK-expressing NIH 3T3 and HCT-116 cell lines were evaluated for intracellular metabolism of [^3H]GCV, [^3H]thymidine, or [^3H]dC. Cells were labeled with [^3H]GCV for 18 hours, then nucleotides were extracted in ice-cold 70% methanol as previously described (21, 24). The data in Table 3 summarize the amount of total nucleotide metabolites isolated in the methanol-soluble extracts (pmol/10^6 cells) as well as the total amount of methanol-insoluble metabolites representative of incorporation into DNA. The Asn-125TK metabolizes GCV at (or near) equal levels to the wild-type HSV-TK in both cell lines. The methanol-insoluble data, while only a crude indicator of [^3H]GCV incorporation into DNA, reflects the numbers obtained with the soluble extracts. As compared with the non-HSV-TK-expressing HCT-116 cells and consistent with data in the previous study (24), minimal [^3H]GCV metabolism was detected in the Asp-125TK cells and these cells were not further evaluated.
The methanol-soluble metabolites were further separated into their constituent phosphorylated GCV metabolites by thin layer chromatography (21). As presented in Table 4, the predominant metabolite in each HSV-TK-expressing cell line was GCVTP. In both HCT-116 and NIH3T3 cell lines, the Asn-125TK cells indicated slightly higher levels of GCVTP as compared to wild-type HSV-1 TK cell lines. […] This difference in the levels of GCVTP in the two Glu-125TK expressing cell lines could explain the lack of sensitivity to GCV killing observed for the NIH3T3 Glu-125TK cell lines.

The test system of test [2] is HCT-116 cells. Description: Clonal dilution assay for GCV sensitivity. In kind it is cell-based, human. The following applies: for Decrease in cell colony numbers: 24 hours, FIG. 4. How it is done:
Parental HCT-116 (large square), wild-type HSV-1 TK cells (triangle), Asn-125TK cells (small square) and Glu-125TK cells (diamond) were treated with 0, 0.1, 1 or 10 μM GCV in triplicate for 24 hours. After this time, each well of cells was sequentially diluted from 1:10 to 1:10,000 in 1 ml of fresh media on a separate 24 well plate. After 7 days, surviving cell colonies were fixed in 100% methanol, stained with 0.1% methylene blue and counted.
For determination of GCV sensitivity, parental HCT-116 and each HSV-1 TK expressing cells were seeded in 24 well plates (2×10^5/well) in 1 ml of media. The next day, 0, 0.1, 1 or 10 μM GCV was added to each cell line in triplicate. After 24 hours, for each well the media was removed, cells were rinsed twice in fresh media, trypsinized, then media was added to 1 ml per well. Each well of cells was then sequentially diluted from 1:10 to 1:10,000 in 1 ml of fresh media on a separate 24 well plate. After 7 days, surviving cell colonies were fixed in 100% methanol, stained with 0.1% methylene blue and counted. For bystander effect assays, each of the three HSV-1 TK expressing cell lines were plated with parental HCT-116 cells (total 2×10^5/well) in the following proportions: (parental: HSV-1TK cells) 100%:0; 95%:5%; 90%:10%; 75%:25%; 50%:50% and 0:100%. After two days, 25 μM GCV was added in 1 ml fresh media. After 24 hrs, the media was removed and cells from each well were diluted from 1:10 to 1:10,000 as described above. After 7 days, surviving cell colonies were fixed and stained for counting.
Cells previously plated in 24 well plates were treated with GCV (0-10 μM) in triplicate for 24 hours. Following drug removal, cells were diluted and replated in fresh media from dilutions of 1:10 to 1:10,000. Surviving cell colonies were counted 6-7 days later.

Test [3] deals with HCT-116 cells. Description: Metabolic labeling with [^3H]GCV, [^3H]thymidine, [^3H]dC, HCT-116 cell clones. In kind it is cell-based, human. The following applies: for Phosphorylated metabolite GCVDP / Phosphorylated metabolite GCVMP / Phosphorylated metabolite GCVTP: 116; for Phosphorylated metabolite TMP / Phosphorylated metabolite TTP: 116, [^3H]thymidine labeled. As for the experimental part:
as §1
as §2, with “DNA.” for “DNA. The Asn-125TK metabolizes GCV at (or near) equal levels to the wild-type HSV-TK in both cell lines. The methanol-insoluble data, while only a crude indicator of [^3H]GCV incorporation into DNA, reflects the numbers obtained with the soluble extracts. As compared with the non-HSV-TK-expressing HCT-116 cells and consistent with data in the previous study (24), minimal [^3H]GCV metabolism was detected in the Asp-125TK cells and these cells were not further evaluated.”
The methanol-soluble metabolites were further separated into their constituent phosphorylated GCV metabolites by thin layer chromatography (21).
Cells were grown to confluency and labeled with either [^3H]thymidine or [^3H]dC for 1 or 2 hours respectively prior to methanol extraction.

For the substance Glu-125, in test [1], the “Phosphorylated metabolite GCVDP” value is reported as 0 pmol/10^6 cells, the “Phosphorylated metabolite GCVMP” value was 0 pmol/10^6 cells and the “Phosphorylated metabolite GCVTP” value is 1.6 pmol/10^6 cells. In addition, in test [2] (0.1 μM GCV), the “Decrease in cell colony numbers” value is reported as “no reduction”. Besides, the “Decrease in cell colony numbers” value in test [2] (1 μM GCV) is given as 0.7 log. Further, the “Decrease in cell colony numbers” value in test [2] (10 μM GCV) is listed as 2.5 log. Also, the “Reduction in cell colony numbers” value in test [2] (20-110 μM GCV (data not shown)) was “over 3 log”. Also, in test [3], the “Phosphorylated metabolite GCVDP” value is listed as 2.5 pmol/10^6 cells, the “Phosphorylated metabolite GCVMP” value is 3.0 pmol/10^6 cells, the “Phosphorylated metabolite GCVTP” value turned out to be 18 pmol/10^6 cells and the “Phosphorylated metabolite TMP” value worked out at 0.2 pmol/10^6 cells. Further, the “Phosphorylated metabolite TTP” value in test [3] is 0.4 pmol/10^6 cells. Also, the “Decrease in GCVTP levels” value in test [3] (HCT-116 cells, compared to wild-type and Asn-125TK cells) is no less than 23 fold.
In the case of “Gln-125 (WT): wild-type herpes simplex virus type 1 thymidine kinase with glutamine at position 125, parent enzyme [reference compound]”, in test [1], the “Phosphorylated metabolite GCVDP” value is given as 22 pmol/10^6 cells, the “Phosphorylated metabolite GCVMP” value worked out at 12 pmol/10^6 cells and the “Phosphorylated metabolite GCVTP” value is 232 pmol/10^6 cells. Besides, the “Decrease in cell colony numbers” value in test [2] (0.1 μM GCV) worked out at 2 log. Also, the “Decrease in cell colony numbers” value in test [2] (10 μM GCV) is 4 log. In test [3], the “Phosphorylated metabolite GCVDP” value was 101 pmol/10^6 cells, the “Phosphorylated metabolite GCVMP” value is listed as 96 pmol/10^6 cells, the “Phosphorylated metabolite GCVTP” value turned out to be 415 pmol/10^6 cells and the “Phosphorylated metabolite TMP” value is 1.2 pmol/10^6 cells. In addition, the “Phosphorylated metabolite TTP” value in test [3] is 9.5 pmol/10^6 cells.
Take Asn-125: in test [1], the “Phosphorylated metabolite GCVDP” value came out at 21 pmol/10^6 cells, the “Phosphorylated metabolite GCVMP” value is recorded as 11 pmol/10^6 cells and the “Phosphorylated metabolite GCVTP” value came out at 272 pmol/10^6 cells. In test [2] (0.1 μM GCV), the “Decrease in cell colony numbers” value is 2 log. For the same substance, the “Decrease in cell colony numbers” value in test [2] (10 μM GCV) is listed as 4 log. For the same substance, in test [3], the “Phosphorylated metabolite GCVDP” value was determined as 104 pmol/10^6 cells, the “Phosphorylated metabolite GCVMP” value came out at 95 pmol/10^6 cells, the “Phosphorylated metabolite GCVTP” value was determined as 533 pmol/10^6 cells and the “Phosphorylated metabolite TMP” value is given as 0.2 pmol/10^6 cells. In test [3], the “Phosphorylated metabolite TTP” value worked out at 0.9 pmol/10^6 cells.
